According to patent publication US8937089B2, “Synergistic mixtures of anthranilamide invertebrate pest control agents” (priority 2004, dated 2015):

Assays:
Type in all cases: in vivo
[1] = system: potato leafhopper (Empoasca fabae Harris); assay: whole plant or invertebrate; details: alone
In short: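 Contact and/or systemic test: five adult leafhoppers aged 18–21 days were released onto Longio bean plants 1 h after spraying. The spray was 1 mL per unit in acetone/water (10:90) with 300 ppm non-ionic surfactant, run in triplicate. Plants were kept 6 days in a growth chamber at 19–21 °C and 50–70% humidity.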

[2] = system: western flower thrip (Frankliniella occidentalis Pergande); assay: whole plant or invertebrate; details: single compound, spray, 7 days
In short: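 Bean plants aged 5–7 days received a spray of test solution (10% acetone, 90% water, 300 ppm surfactant), in triplicate. Adult thrips (22–27 per unit) were introduced once the plants had dried for 1 h. Incubation lasted 7 days at 25° C and 45–55% RH.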

[3] = system: green peach aphid (Myzus persicae Sulzer); assay: whole plant or invertebrate; details: Green Peach Aphid
In short: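 Compounds formulated in 10% acetone/water with 300 ppm X-77 surfactant were atomized onto aphid-infested radish seedlings, with three replicates per treatment. Infestation was 30–40 aphids transferred on excised leaf pieces, covering contact and systemic exposure. Test units stayed 6 days in a growth chamber at 19–21 °C and 50–70% relative humidity.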

[4] = system: cotton melon aphid (Aphis gossypii Glover); assay: whole plant or invertebrate
In short: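 Sprays in acetone–water with 300 ppm non-ionic surfactant, at ppm concentrations, applied to aphid-infested (30–40 per plant) 6–7-day cotton, in triplicate. Evaluation after 6 days in a growth chamber at 19–21 °C and 50–70% relative humidity, covering contact and/or systemic action.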

[5] = system: corn planthopper (Peregrines maidis); assay: whole plant or invertebrate; details: Corn Plant Hopper
In short: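 Contact/systemic test on corn planthopper: 10–20 nymphs (18- to 20-day-old) released onto young maize plants 1 h after spraying, with three replicate units per treatment. Spray solution was acetone/water 10:90 containing 300 ppm non-ionic spreader; units kept 6 days at 19-21° C., 50-70% RH.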

[6] = system: silverleaf whitefly (Bemisia argentifolii Bellows and Perring); assay: whole plant or invertebrate; details: Table 2B
In short: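 Whitefly-egg-infested 12–14-day-old cotton plants sprayed with compound in 10% acetone/90% water plus 300 ppm non-ionic surfactant, in triplicate. Plants then held 13 days at 28 °C and 50–70% relative humidity before mortality assessment.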

[7] = system: beet armyworm (Spodoptera exigua); assay: Test I: control of beet armyworm, spray on tomato plants, excised leaves, % mortality and % feeding at 72 hours
Method: For evaluating control of beet armyworm (Spodoptera exigua), methomyl was in the liquid formulation as Lannate® LV (29% of active ingredient). Compound 1 was in a water dispersible granules (WDG) formulation with 35% active ingredient. The test compounds were dissolved in water. Enough water was added to make 100 ppm of active ingredient for each compound. Serial dilutions were made to obtain the appropriate concentrations. To obtain the desired mixture concentrations of each compound, twice the desired concentration of each of the two mixture partner compounds were mixed together in equal volumes.
The diluted solutions of the test compounds were sprayed to run-off on three-week-old tomato plants. The plants were placed on a rotating turntable sprayer (10 rpm). Test solutions were applied using a flat fan air-assisted nozzle (Spraying Systems 122440) at 10 psi (69 kPa). After each treated plant had dried, leaves were excised from the treated plant. The leaves were cut into pieces, which were placed singly into 5.5 cm-by-3.5 cm cells of a sixteen-cell plastic tray. Each cell contained a 2.5-cm square of moistened chromatography paper to prevent desiccation. One insect was placed in each cell. There two trays per treatment. […]

[8] = system: diamondback moth (Plutella xylostella); assay: whole plant or invertebrate
Method: The test compounds were dissolved in water. […] Serial dilutions were made to obtain the appropriate concentrations. To obtain the desired mixture concentrations of each compound, twice the desired concentration of each of the two mixture partner compounds were mixed together in equal volumes.
The diluted solutions of the test compounds were sprayed to run-off on three-week-old tomato plants. The plants were placed on a rotating turntable sprayer (10 rpm). Test solutions were applied using a flat fan air-assisted nozzle (Spraying Systems 122440) at 10 psi (69 kPa). […] The leaves were cut into pieces, which were placed singly into 5.5 cm-by-3.5 cm cells of a sixteen-cell plastic tray. Each cell contained a 2.5-cm square of moistened chromatography paper to prevent desiccation. One insect was placed in each cell. There two trays per treatment. Trays were held in the growth chamber at 25° C., 16-hour light:8-hour dark, 60% relative humidity for 4 days.
For evaluating control of diamondback moth (Plutella xylostella), cabbage (var. Stonehead) plants were grown in Metromix potting soil in 10-cm pots in aluminum trays to test size (28 days, 3-4 full leaves) the plants were sprayed to the point of runoff using the turntable sprayer as described in Test I. Test compounds were formulated and sprayed on test plants as described for Test I. After drying for 2 hours, the treated leaves were excised and infested with one cabbage looper per cell and covered. The test units were placed on trays and put in a growth chamber at 25° C. and 60% relative humidity for 4 days.

## CNC(=O)ON=C(C)SC [Methomyl]
[1]; rate 1 ppm
  % mortality (obs): 0%
[1]; rate 2 ppm
  % mortality (obs): 53%
[1]; rate 5 ppm
  % mortality (obs): 100%
[2]; rate 30 ppm
  % mortality (obs): 60%
[2]; rate 100 ppm
  % mortality (obs): 60%
[2]; rate 300 ppm
  % mortality (obs): 100%
[3]; rate 50 ppm
  % mortality (obs): 20%
[3]; rate 100 ppm
  % mortality (obs): 61%
[3]; rate 200 ppm
  % mortality (obs): 100%
[4]; rate 2 ppm
  % mortality (obs): 11%
[4]; rate 5 ppm
  % mortality (obs): 35%
[4]; rate 15 ppm
  % mortality (obs): 64%
[5]; rate 0.5 ppm
  % mortality (obs): 5%
[5]; rate 1 ppm
  % mortality (obs): 21%
[5]; rate 2 ppm
  % mortality (obs): 19%
[6]; rate 10 ppm
  % mortality (obs): 4%
[6]; rate 100 ppm
  % mortality (obs): 3%
[6]; rate 1000 ppm
  % mortality (obs): 6%
[7]; Methomyl 5.22 ppm
  % feeding: 17%
  % mortality (observed): 6%
[7]; Methomyl 10.9 ppm
  % feeding: 29%
  % mortality (observed): 10%
[7]; Methomyl 16.3 ppm
  % feeding: 9%
  % mortality (observed): 44%
[7]; Methomyl 20.6 ppm
  % feeding: 10%
  % mortality (observed): 16%
[7]; Methomyl 37.8 ppm
  % feeding: 3%
  % mortality (observed): 44%
[7]; Methomyl 100 ppm
  % feeding: 0%
  % mortality (observed): 84%
[8]; rate 30 ppm
  % mortality (obs): 80%
[8]; rate 40 ppm
  % mortality (obs): 90%
[8]; rate 50 ppm
  % mortality (obs): 80%
